Measurements reported in patent publication US4452991A, “Flavan derivatives useful for impairing RNA virus replication in a cell” (priority 1979, dated 1984).

These compounds were tested on virus (assay: plaque reduction (PR) test, antiviral activity in monolayer cell culture). Settings: compound in nutrient agarose overlay, 50% effective dose vs control, read-out: PR (ED50 /μM).
Format: cell-based
Experimental: (§1) Activity may be detected by the plaque inhibition (PI) test and measured by the plaque reduction (PR) test. Both assays involve the formation of a monolayer cell culture in a petri dish followed by infection with a virus suspension, and then overlaying the culture with nutrient agarose in the form of a gel. This gel ensures that there is no spread of virus throughout the culture and thus areas of localised cell destruction of plaques are formed.
Detectable activity is measured with the plaque reduction assay. A range of concentrations of compound of known molarity are incorporated in the nutrient agarose overlay. Plaque suppression is proportional to compound concentration. Plaque numbers are expressed as percentages of a control, and a dose responsecurve may be drawn. From this curve 50% of the effective dose (ED50) may be estimated.

Point of comparison: `Clc1cc(Cl)c2c(c1)C[C@@H]1CCc3ccccc3[C@@H]1O2` (relative stereo) [Example 7, cis-9,11-dichloro-5,6,6a,12a-tetrahydro-7H-benzo(c)xanthene], EC50 6 µM. Against it:
- C[C@@H]1Cc2ccccc2O[C@H]1c1ccccc1 (relative stereo) [Example 1, trans-3-methylflavan] — 48-fold lower, 0.125 µM
- C[C@@H]1Cc2cc(Cl)ccc2O[C@H]1c1ccc(Cl)cc1 (relative stereo) [Example 2, trans-4',6-dichloro-3-methylflavan] — 44-fold lower, 0.135 µM
- c1ccc2c(c1)C[C@H]1Cc3ccccc3[C@H]1O2 (relative stereo) [Example 5, cis-4b,10,10a,11-tetrahydrobenz(b)indeno(2,1-e)pyran] — 16-fold lower, 0.38 µM
- Clc1cc(Cl)c2c(c1)C[C@H]1Cc3ccccc3[C@H]1O2 (relative stereo) [Example 9, Cis-6,8-dichloro-4b,10,10a,11-tetrahydrobenz(b)indeno(2,1-e)pyran] — 11-fold lower, 0.57 µM
- c1ccc2c(c1)C[C@@H]1CCc3ccccc3[C@@H]1O2 (relative stereo) [Example 6, cis-5,6,6a,12a-tetrahydro-7H-benzo(c)xanthene] — 200-fold lower, 0.03 µM
- C[C@H]1Cc2ccccc2O[C@H]1c1ccccc1 (relative stereo) [Example 3, cis-3-methylflavan] — 5.5-fold lower, 1.1 µM
- Clc1cccc2c1O[C@@H]1c3ccccc3C[C@@H]1C2 (relative stereo) [Example 8, cis-6-chloro-4b,10,10a,11-tetrahydrobenz(b)indeno(2,1-e)pyran] — 4-fold lower, 1.5 µM

Each compound was assayed on virus (assay: Intranasal administration simulation in vitro (compound on lid of petri dish, inhibition of plaque formation)). Settings: 1 μg compound spread on inside of petri dish lid, agarose-covered cells.
Format: cell-based
From the text: as §1
In the plaque inhibition test a filter paper disc which holds 0.01 ml when impregnated with a solution of compound is placed on top of the agarose gel. The compound may then diffuse throughout the gel so that its greatest concentration will be around the disc and its lowest concentration towards the periphery of the petri dish. The efficacy of the compound may be detected by observing the zone inhibition of plaque formation.
Petri dishes were prepared, as for the plaque inhibition test and the confluent sheet of cells was covered with a layer of agarose gel. The compound, trans-3-methylflavan (1 μg) was dissolved in ethanol, and applied to the lids of the petri dishes. When the ethanol had evaporated, leaving the compound spread over the inside of the lids, these were replaced on the petri dishes.

`C[C@@H]1Cc2ccccc2O[C@H]1c1ccccc1` (relative stereo) [Example 1, trans-3-methylflavan] was tested, and the “inhibition of plaque formation” value was “total inhibition of plaque formation”.
